Source: US5208242A, “5-substituted-4-phenyl-5H-imidazo[4,5-c]pyridine derivatives” (G. D. Searle & Co., priority 1992, dated 1993)

Target: T1, PAF receptor (Homo sapiens, UniProt P25105)
T1 construct: tissue Lifesource, Inc. (Glenview, Ill.); host or cells: human packed platelets (washed, freeze-thawed membrane preparation)
Test: Inhibition of the Specific Binding of [^3 H]PAF to Human Platelet Membrane Preparation
Conditions: 0.75 nM [^3 H]PAF, 30 minutes at 24° C., pH 7.4
Description: Inhibition of the Specific Binding of [^3 H]PAF to Human Platelet Membrane Preparation.
Human packed platelets were obtained from Lifesource, Inc. (Glenview, Ill.) and washed 3 times with 10 mM Trizma pH 7.0, 2 mM EDTA (dipotassium salt), 150 mM KCl and then once with 10 mM Trizma 7.4, 20 mM CaCl2. The platelets were broken by freezing in a dry ice-ethanol bath, followed by thawing in 24° C. water baths. The preparation was centrifugation (40,000×g, 20 minutes, 4' C) and the pellet resuspended in 10 mM Trizma 7.4, 20 mM CaCl2, 5 mg/ml human albumin. Protein concentration in the platelet membrane preparation was determined by the Lowry method [O.H. Lowry et al. J. Biological Chemistry, 193, 265-275 (1951)]. Aliquots of the membrane preparation were stored at -70° C. Each preparation was characterized for PAF receptor number and dissociation constant (Kd). In binding assays 5 μl of test compound, solubilized in DMSO, was added to polypropylene tubes along with 0.75 nM [^ 3 H]PAF and 200 mcl [0.075 nM] of membranes and 95 μl 10 mM Trizma 7.4, […], 5 mg/ml human albumin. Tubes were incubated for 30 minutes at 24° C. […] Filters were prepared and counted for a scintillation counter. […] The IC50 values were determined by the Allfit program using percent displacement data. […]

T1 sequence (P25105 whole entry): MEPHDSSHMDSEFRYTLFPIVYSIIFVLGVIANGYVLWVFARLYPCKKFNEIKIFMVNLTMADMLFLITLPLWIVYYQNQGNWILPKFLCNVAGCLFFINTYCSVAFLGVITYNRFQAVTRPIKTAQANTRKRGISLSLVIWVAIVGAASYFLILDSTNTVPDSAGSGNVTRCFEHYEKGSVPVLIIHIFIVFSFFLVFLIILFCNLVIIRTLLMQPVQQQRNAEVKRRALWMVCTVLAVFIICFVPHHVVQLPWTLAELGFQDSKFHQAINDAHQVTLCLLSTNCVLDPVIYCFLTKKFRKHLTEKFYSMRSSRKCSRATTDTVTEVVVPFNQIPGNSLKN

IC50: 1.04 µM
SMILES: COc1cc(C(=O)N(C(C)C)C2CCCCC2)ccc1Cn1ccc2ncnc-2c1-c1ccccc1 [Compound 9, N-cyclohexyl-3-methoxy-N-(1-methylethyl)-4-[(4-phenyl-5H-imidazo[4,5-c]pyridin-5-yl)methyl]benzamide]
